Test results from patent publication US20190119348A1, “PARATHYROID HORMONE RECEPTOR 1 ANTAGONIST AND INVERSE AGONIST POLYPEPTIDES AND METHODS OF THEIR USE” (The General Hospital Corporation, priority 2016, published 2019).
Where a SMILES comes first, the peptide text is derived from it. [ ]: non-standard residue; d: D form. Nle = CCCC[C@H](N)C(=O)O

Target: T1, human PTHR1-H223R (Homo sapiens, UniProt Q03431, H223R)
T1 construct: expressed in transfected cells; host or cells: GHR-10 (HEK-293 stably expressing GloSensor and PTHR1-H223R)
T1 sequence (Q03431 27-593 H223R): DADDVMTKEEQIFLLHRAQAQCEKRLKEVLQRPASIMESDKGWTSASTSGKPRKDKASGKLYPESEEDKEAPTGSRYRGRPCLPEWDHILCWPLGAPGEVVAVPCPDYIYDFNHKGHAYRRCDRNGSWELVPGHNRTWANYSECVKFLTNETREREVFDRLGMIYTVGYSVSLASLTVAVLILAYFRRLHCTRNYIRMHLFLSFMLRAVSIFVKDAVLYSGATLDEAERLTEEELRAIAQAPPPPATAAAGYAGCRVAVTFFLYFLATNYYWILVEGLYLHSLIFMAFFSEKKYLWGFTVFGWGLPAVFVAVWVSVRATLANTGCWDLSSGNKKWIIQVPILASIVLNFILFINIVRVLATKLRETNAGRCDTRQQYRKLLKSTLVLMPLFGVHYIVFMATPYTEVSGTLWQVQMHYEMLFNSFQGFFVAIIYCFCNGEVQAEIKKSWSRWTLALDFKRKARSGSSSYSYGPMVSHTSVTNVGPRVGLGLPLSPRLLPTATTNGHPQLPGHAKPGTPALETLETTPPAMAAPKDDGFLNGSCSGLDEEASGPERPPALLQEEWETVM
Assay: Inverse agonism on basal cAMP signaling in GHR-10 cells
Type: cell-based
Details: for inverse agonist properties on constitutively active PTHR1-H223R (basal cAMP): GHR-10 cells (HEK293/GloSensor); for Reduction of basal cAMP, % vehicle, After ligand washout / Reduction of basal cAMP, % vehicle, Ligand @ −6M: GHR-10 cells, from AUC, representative experiment; for Reduction of basal cAMP, % vehicle, After ligand washout: 26 minutes after washout of unbound ligand; for Reduction of basal cAMP, % vehicle, Ligand @ −6M: peptide 1×10^−6 M for 24 minutes
Protocol: cAMP signaling was assessed in the HEK293-derived or SaOS2-derived cell lines stably expressing the luciferase-based GloSensor™ cAMP reporter (Hattersley et al., Paper presented at: Novel Signaling Mechanisms and Bone Cell Biology 2014; Binkowski et al., Methods in molecular biology. 756:263-271). HEK-293 cells were further transfected to stably express the hPTHR1, hPTHR1-H223R, or hPTHR1-T410P. The cells were seeded into 96-well white plates and were assayed 24 to 48 hours post-confluency. Assays were performed at room temperature in CO2-independent culture media (Life Technologies, Corp., Carlsbad, Calif.) containing 0.1% BSA (CIDB). The cells were pre-loaded with luciferin (0.5 mM in CIDB) for 15 minutes, then PTH peptides were added at varying concentrations. cAMP-dependent luminescence was measured at two-minute intervals using a PerkinElmer Envision plate reader. The time at which maximum luminescence (cps) observed with agonist alone, typically at 10-20 minutes after agonist addition, was used to obtain data from wells containing antagonist with or without agonist, to thus generate antagonist ligand dose-response curves. The resulting cps values were then plotted against ligand concentration using GraphPad Prism 7.0 software and a four-parameter logistics curve fitting equation, which yielded parameters of inhibitory potency (pIC50).
These experiments were performed in HEK-293 cells stably transfected to express the GloSensor™ cAMP reporter along with a constitutively active mutant human PTHR1. The HEK-293 cells stably expressing GloSensor™ cAMP reporter along with a constitutively active mutant human PTHR1-H223R are GHR-10 cells. The HEK-293 cells stably expressing GloSensor™ cAMP reporter along with a constitutively active mutant human PTHR1-T410P are GTP-4 cells. The HEK-293 cells stably expressing GloSensor™ cAMP reporter along with a WT-PTHR1 are GP-2.3 cells. GP-2.3 cells were used as control. […] Effects on basal cAMP signaling over time were assessed during periods of direct ligand addition (FIGS. 15A-15F). The measurements were performed by recording GloSensor™ luminescence as counts per second (cps) using a PerkinElmer Envision plate reader. The data are illustrated in FIGS. 15A-15F. Data are from triplicate wells (means±SEM) of a single experiment representative of two others.
Persistence of the antagonist/inverse agonist effects (prolonged action) as follows. Effects of eight peptides on basal and PTH(1-34)-stimulated cAMP signaling by PTHR-H223R were assessed in GHR-10 cells (HEK-293-derived cells stably expressing glosensor cAMP reporter and PTHR1-H223R). Time courses of changes in cAMP levels were recorded in three consecutive phases:
1) after initial addition of a candidate antagonist/inverse agonist (1×10^−6 M-1×10^−9 M) to cells pre-loaded for […] with luciferin (left column);
2) after removal of unbound inverse agonist by extensive wash-out with buffer and replenishment with fresh luciferin-containing buffer (middle column); and
Control wells were treated with vehicle. GloSensor™ luminescence, as counts per second (cps), was recorded using a PerkinElmer Envision plate reader. Data are from duplicate wells (means±SEM) of a single experiment representative of two others. The results are illustrated in Table 7 and in FIGS. 16A-16C, 17A-17C, 18A-18C, 19A-19C, 20A-20C, 21A-21C, 22A-22C, and 23A-23C.
GHR10 cells were treated with vehicle or vehicle containing the indicated peptide for 24 minutes and cAMP-dependent luminescence was recorded at two-minute intervals. The cells were then washed to remove unbound ligand and media containing fresh luciferin was added, and cAMP luminescence was recorded for another 26 minutes. Percentage reduction was calculated from the area-under-the-curve (AUC) values derived from the time course plots using the equation: […]

Row | inverse agonist properties on constitutively active PTHR1-H223R (basal cAMP) | Reduction of basal cAMP, % vehicle, After ligand washout | Reduction of basal cAMP, % vehicle, Ligand @ −6M | SMILES
1 | exhibited inverse agonist properties | 30 % vehicle | 41 % vehicle | CC[C@H](C)[C@H](N)C(=O)N[C@@H](CCC(N)=O)C(=O)N[C@@H](CC(C)C)C(=O)N[C@@H](CCSC)C(=O)N[C@@H](Cc1c[nH]cn1)C(=O)N[C@@H](CCC(N)=O)C(=O)N[C@@H](CCCNC(=N)N)C(=O)N[C@H](Cc1c[nH]c2ccccc12)C(=O)N[C@@H](CCCCN)C(=O)N[C@@H](Cc1c[nH]c2ccccc12)C(=O)N[C@H](C(=O)N[C@@H](CCC(N)=O)C(=O)N[C@@H](CC(=O)O)C(=O)N[C@@H](C)C(=O)N[C@@H](CCCNC(=N)N)C(=O)N[C@@H](CCCNC(=N)N)C(=O)N[C@@H](CCCNC(=N)N)C(=O)N[C@@H](C)C(=O)N[C@@H](Cc1c[nH]c2ccccc12)C(=O)N[C@@H](CC(C)C)C(=O)N[C@@H](Cc1c[nH]cn1)C(=O)N[C@@H](CCCCN)C(=O)N[C@@H](CC(C)C)C(=O)N[C@H](C(=O)N[C@@H](C)C(=O)N[C@@H](CCC(=O)O)C(=O)N[C@H](C(=O)N[C@@H](Cc1c[nH]cn1)C(=O)N[C@H](C(=O)N[C@@H](C)C(=O)N[C@@H](CCC(=O)O)C(=O)N[C@H](C(N)=O)[C@@H](C)CC)[C@@H](C)O)[C@@H](C)CC)[C@@H](C)CC)[C@@H](C)CC [compound 1949, dW12, W23-LA-PTH(5-36)] (H-IQLMHQR[dW]KWIQDARRRAWLHKLIAEIHTAEI-NH2; N-terminus assumed)
2 | inverse agonist response | 39 % vehicle | 50 % vehicle | CC[C@H](C)[C@H](NC(=O)[C@H](CCC(=O)O)NC(=O)[C@H](C)NC(=O)[C@@H](NC(=O)[C@H](Cc1c[nH]cn1)NC(=O)[C@@H](NC(=O)[C@H](CCC(=O)O)NC(=O)[C@H](C)NC(=O)[C@@H](NC(=O)[C@H](CC(C)C)NC(=O)[C@H](CCCCN)NC(=O)[C@H](Cc1c[nH]cn1)NC(=O)[C@H](CC(C)C)NC(=O)[C@H](Cc1c[nH]c2ccccc12)NC(=O)[C@H](C)NC(=O)[C@H](CCCNC(=N)N)NC(=O)[C@H](CCCNC(=N)N)NC(=O)[C@H](CCCNC(=N)N)NC(=O)[C@H](C)NC(=O)[C@H](CC(=O)O)NC(=O)[C@H](CCC(N)=O)NC(=O)[C@@H](NC(=O)[C@H](Cc1c[nH]c2ccccc12)NC(=O)[C@H](CCCCN)NC(=O)[C@@H](Cc1c[nH]c2ccccc12)NC(=O)[C@H](CCCNC(=N)N)NC(=O)[C@H](CCC(N)=O)NC(=O)[C@H](Cc1c[nH]cn1)NC(=O)[C@H](CCSC)NC(=O)[C@@H](N)CC(C)C)[C@@H](C)CC)[C@@H](C)CC)[C@@H](C)CC)[C@@H](C)O)C(N)=O [compound 1990, dW12, W23-LA-PTH(7-36)-1990] (H-LMHQR[dW]KWIQDARRRAWLHKLIAEIHTAEI-NH2; N-terminus assumed)
3 | inverse agonist response | 40 % vehicle | 51 % vehicle | CCCC[C@H](NC(=O)[C@@H](N)CC(C)C)C(=O)N[C@@H](Cc1c[nH]cn1)C(=O)N[C@@H](CCC(N)=O)C(=O)N[C@@H](CCCNC(=N)N)C(=O)N[C@H](Cc1c[nH]c2ccccc12)C(=O)N[C@@H](CCCCN)C(=O)N[C@@H](Cc1c[nH]c2ccccc12)C(=O)N[C@H](C(=O)N[C@@H](CCC(N)=O)C(=O)N[C@@H](CC(=O)O)C(=O)N[C@@H](C)C(=O)N[C@@H](CCCNC(=N)N)C(=O)N[C@@H](CCCNC(=N)N)C(=O)N[C@@H](CCCNC(=N)N)C(=O)N[C@@H](C)C(=O)N[C@@H](Cc1c[nH]c2ccccc12)C(=O)N[C@@H](CC(C)C)C(=O)N[C@@H](Cc1c[nH]cn1)C(=O)N[C@@H](CCCCN)C(=O)N[C@@H](CC(C)C)C(=O)N[C@H](C(=O)N[C@@H](C)C(=O)N[C@@H](CCC(=O)O)C(=O)N[C@H](C(=O)N[C@@H](Cc1c[nH]cn1)C(=O)N[C@H](C(=O)N[C@@H](C)C(=O)N[C@@H](CCC(=O)O)C(=O)N[C@H](C(N)=O)[C@@H](C)CC)[C@@H](C)O)[C@@H](C)CC)[C@@H](C)CC)[C@@H](C)CC [compound 1992, Nle8, dW12, W23-LA-PTH(7-36)-1992] (H-L[Nle]HQR[dW]KWIQDARRRAWLHKLIAEIHTAEI-NH2; N-terminus assumed)
4 | – | 71 % vehicle | 70 % vehicle | CCCC[C@H](NC(=O)[C@@H](N)CC(C)C)C(=O)N[C@@H](Cc1c[nH]cn1)C(=O)N[C@@H](CCC(N)=O)C(=O)N[C@@H](CC(C)C)C(=O)N[C@H](Cc1c[nH]c2ccccc12)C(=O)N[C@@H](CCCCN)C(=O)N[C@@H](Cc1c[nH]c2ccccc12)C(=O)N[C@H](C(=O)N[C@@H](CCC(N)=O)C(=O)N[C@@H](CC(=O)O)C(=O)N[C@@H](C)C(=O)N[C@@H](CCCNC(=N)N)C(=O)N[C@@H](CCCNC(=N)N)C(=O)N[C@@H](CCCNC(=N)N)C(=O)N[C@@H](C)C(=O)N[C@@H](Cc1c[nH]c2ccccc12)C(=O)N[C@@H](CC(C)C)C(=O)N[C@@H](Cc1c[nH]cn1)C(=O)N[C@@H](CCCCN)C(=O)N[C@@H](CC(C)C)C(=O)N[C@H](C(=O)N[C@@H](C)C(=O)N[C@@H](CCC(=O)O)C(=O)N[C@H](C(=O)N[C@@H](Cc1c[nH]cn1)C(=O)N[C@H](C(=O)N[C@@H](C)C(=O)N[C@@H](CCC(=O)O)C(=O)N[C@H](C(N)=O)[C@@H](C)CC)[C@@H](C)O)[C@@H](C)CC)[C@@H](C)CC)[C@@H](C)CC [compound 1997, Nle8,L11, dW12, W23-LA-PTH(7-36)-1997] (H-L[Nle]HQL[dW]KWIQDARRRAWLHKLIAEIHTAEI-NH2; N-terminus assumed)
